Patent publication US8288424B2, “Substituted tetrahydroimidazopyridine compounds and the use thereof in the treatment of pain and other conditions” (Gruenenthal GmbH, priority 2008, dated 2012)

Target: T1, KCNQ2/3 channels (Homo sapiens, UniProt O43525+O43526)
T1 construct: expressed in transfected cells; host or cells: CHO-K1
Assay: Fluorescence assay using a voltage-sensitive dye
Format: cell-based
Details: CHO-K1 cells expressing KCNQ2/3 channels, agonistic activity; for activation at 10 µM: 10 μmol test substance, read-out: % Stimulation [10 μmol] Average
Procedure: Fluorescence Assay Using a Voltage-Sensitive Dye
Human CHO-K1 cells expressing KCNQ2/3 channels are cultivated adherently at 37° C., 5% CO2 and 95% humidity in cell culture bottles (e.g. 80 cm^2 TC flasks, Nunc) with MEM Alpha Medium (1×, liquid, Invitrogen, #22571), 10% foetal calf serum (FCS) (Invitrogen, #10270-106, heat-inactivated) and the necessary selection antibiotics. Before being spread out for the measurements, the cells are washed with a 1×DPBS buffer without Ca^2+/Mg^2+ (e.g. Invitrogen, #14190-094) and detached from the bottom of the culture vessel by means of Accutase (PAA Laboratories, #L11-007) (incubation with Accutase for 15 min at 37° C.). The cell count then present is determined using a CASY™ cell counter (TCC model, Schärfe System) in order subsequently to apply 20,000 cells/well/100 μl of the described nutrient medium to 96-well measuring plates of the Corning™ CellBIND™ type (flat clear-bottom black polystyrene microplates, #3340). Incubation is then carried out for one hour at room temperature, without gassing or adjusting the humidity, followed by incubation for 24 hours at 37° C., 5% CO2 and 95% humidity.
The voltage-sensitive fluorescent dye from the Membrane Potential Assay Kit (Red bulk format part R8123 for FLIPR, Molecular Devices™) is prepared by dissolving the contents of a vessel of Membrane Potential Assay Kit Red Component A in 200 ml of extracellular buffer (ES buffer, 120 mM NaCl, 1 mM KCl, 10 mM HEPES, 2 mM CaCl2, 2 mM MgCl2, 10 mM glucose; pH 7.4). After removal of the nutrient medium, the cells are washed with 200 μl of ES buffer, then covered with a layer of 100 μl of the dye solution prepared above and incubated for 45 min at room temperature with exclusion of light.
The fluorescence measurements are carried out with a BMG Labtech FLUOstar™ or BMG Labtech POLARstar™ instrument (525 nm excitation, 560 nm emission, bottom-read mode). After incubation of the dye, 50 μl of the substances to be tested in the desired concentrations, or 50 μl of ES buffer for control purposes, are introduced into separate cavities of the measuring plate and incubated for 30 min at room temperature whilst being shielded from light. The fluorescence intensity of the dye is then measured for 5 min and the fluorescence value F1 of each well is thus determined at a given, constant time. 15 μl of a […] KCl solution ([…]) are then added to each well. The change in fluorescence is subsequently measured until all relevant measured values have been obtained (mainly 5-30 min). At a given time after KCl application, a fluorescence value F2 is determined, in this case at the time of the fluorescence peak.
For calculation, the fluorescence intensity F2 is compared with the fluorescence intensity F1, and the agonistic activity of the target compound on the potassium channel is determined therefrom. F2 and F1 are calculated as follows:
[formula] In order to determine whether a substance has an agonistic activity,
[formula] for example, can be compared with
[formula] of control cells.
[formula] is determined by adding to the reaction batch only the buffer solution instead of the substance to be tested, determining the value F1K of the fluorescence intensity, adding the potassium ions as described above and measuring a value F2K of the fluorescence intensity. Then F2K and F1K are calculated as follows:
[formula] A substance has an agonistic activity on the potassium channel when
[formula] is greater than
[formula] Independently of the comparison of
[formula] it is also possible to conclude that a target compound has an agonistic activity if an increase in
[formula] is to be observed as the dosage of the target compound increases. Calculations of EC50 and IC50 values are carried out with the aid of Prism 4 software (GraphPad Software™).

Row | activation at 10 µM [%] | EC50 [µM] | Compound
1 | 63.5 | – | O=C(c1cn2c(n1)CCC(c1ccc(F)cc1)C2)N1CCN(c2cccc(C(F)(F)F)c2)CC1 (stereo not drawn) [Compound 47, (6-(4-Fluorophenyl)-5,6,7,8-tetrahydroimidazo[1,2-a]pyridin-2-yl)(4-(3-(trifluoromethyl)phenyl)piperazin-1-yl)methanone]
2 | 88.8 | – | Cc1ccc(C2CCc3nc(C(=O)N4CCC(Cc5ccccc5)CC4)cn3C2)cc1 (stereo not drawn) [Compound 73]
3 | 51.8 | – | COc1ccc(OC)c(C2CCc3nc(C(=O)N4CC5(C)CC4CC(C)(C)C5)cn3C2)c1 (stereo not drawn) [Compound 12, (6-(2,5-Dimethoxyphenyl)-5,6,7,8-tetrahydroimidazo[1,2-a]pyridin-2-yl)(1,3,3-trimethyl-6-azabicyclo[3.2.1]octan-6-yl)methanone]
4 | – | 2.45 | COc1c(C)cc(C2CCc3nc(C(=O)N4CCN(c5cccc(C(F)(F)F)c5)CC4)cn3C2)cc1C (stereo not drawn) [Compound 54, (6-(4-Methoxy-3,5-dimethylphenyl)-5,6,7,8-tetrahydroimidazo[1,2-a]pyridin-2-yl)(4-(3-(trifluoromethyl)phenyl)piperazin-1-yl)methanone]
5 | 18.1 | – | O=C(NCc1ccc2c(c1)OCO2)c1cn2c(n1)CCC(c1cc(C(F)(F)F)cc(C(F)(F)F)c1)C2 (stereo not drawn) [Compound 42, N-(Benzo[d][1,3]dioxol-5-ylmethyl)-6-(3,5-bis(trifluoromethyl)phenyl)-5,6,7,8-tetrahydroimidazo[1,2-a]pyridine-2-carboxamide]
6 | 18.5 | – | COc1c(C)cc(C2CCc3nc(C(=O)NCc4cccc(C(F)(F)F)c4)cn3C2)cc1C (stereo not drawn) [Compound 17, 6-(4-Methoxy-3,5-dimethylphenyl)-N-(3-(trifluoromethyl)benzyl)-5,6,7,8-tetrahydroimidazo[1,2-a]pyridine-2-carboxamide]
7 | 33 | – | O=C(c1cn2c(n1)CCC(c1cccc(F)c1)C2)N1CCN(c2cccc(C(F)(F)F)c2)CC1 (stereo not drawn) [Compound 48, (6-(3-Fluorophenyl)-5,6,7,8-tetrahydroimidazo[1,2-a]pyridin-2-yl)(4-(3-(trifluoromethyl)phenyl)piperazin-1-yl)methanone]
8 | 127 | – | Cc1cccc(C2CCc3nc(C(=O)N4CCN(c5cccc(C(F)(F)F)c5)CC4)cn3C2)c1 (stereo not drawn) [Compound 75, (6-m-Tolyl-5,6,7,8-tetrahydroimidazo[1,2-a]pyridin-2-yl)(4-(3-(trifluoromethyl)phenyl)piperazin-1-yl)methanone]
9 | 16.2 | – | CC(CCc1ccccc1)NC(=O)c1cn2c(n1)CCC(c1cccc(F)c1)C2 (stereo not drawn) [Compound 51, 6-(3-Fluorophenyl)-N-(4-phenylbutan-2-yl)-5,6,7,8-tetrahydroimidazo[1,2-a]pyridine-2-carboxamide]
10 | 120 | – | Cc1cc(C2CCc3nc(C(=O)N4CCC(c5cccc(C(F)(F)F)c5)CC4)cn3C2)ccc1F (stereo not drawn) [Compound 85, (6-(4-Fluoro-3-methylphenyl)-5,6,7,8-tetrahydroimidazo[1,2-a]pyridin-2-yl)(4-(3-(trifluoromethyl)phenyl)piperidin-1-yl)methanone]
11 | – | 11.6 | CCOC(=O)C1CCN(C(=O)c2cn3c(n2)CCC(c2ccc(Oc4ccccc4)cc2)C3)CC1 (stereo not drawn) [Compound 20, Ethyl 1-(6-(4-phenoxyphenyl)-5,6,7,8-tetrahydroimidazo[1,2-a]pyridine-2-carbonyl)piperidine-4-carboxylate]
12 | – | 0.08 | Cc1cc(C)cc(C2CCc3nc(C(=O)N4CCN(c5cccc(C(F)(F)F)c5)CC4)cn3C2)c1 (stereo not drawn) [Compound 77, (6-(3,5-Dimethylphenyl)-5,6,7,8-tetrahydroimidazo[1,2-a]pyridin-2-yl)(4-(3-(trifluoromethyl)phenyl)piperazin-1-yl)methanone]
13 | – | 11.9 | COc1ccc(F)cc1C1CCc2nc(C(=O)N3CC4(C)CC3CC(C)(C)C4)cn2C1 (stereo not drawn) [Compound 9, (6-(5-Fluoro-2-methoxyphenyl)-5,6,7,8-tetrahydroimidazo[1,2-a]pyridin-2-yl)(1,3,3-trimethyl-6-azabicyclo[3.2.1]octan-6-yl)methanone]
14 | 20.9 | – | Cc1ccccc1C1CCc2nc(C(=O)N3CCN(c4cccc(C(F)(F)F)c4)CC3)cn2C1 (stereo not drawn) [Compound 35, (6-o-Tolyl-5,6,7,8-tetrahydroimidazo[1,2-a]pyridin-2-yl)(4-(3-(trifluoromethyl)-phenyl)piperazin-1-yl)methanone]
15 | 65.1 | – | COc1ccc(C2CCc3nc(C(=O)N4CCC(Cc5ccccc5)CC4)cn3C2)cc1 (stereo not drawn) [Compound 76, (4-Benzylpiperidin-1-yl)(6-(4-methoxyphenyl)-5,6,7,8-tetrahydroimidazo[1,2-a]pyridin-2-yl)methanone]
16 | 29.4 | – | O=C(c1cn2c(n1)CCC(c1ccc(F)cc1)C2)N1CCC(Cc2ccccc2)CC1 (stereo not drawn) [Compound 41, (4-Benzylpiperidin-1-yl)(6-(4-fluorophenyl)-5,6,7,8-tetrahydroimidazo[1,2-a]pyridin-2-yl)methanone]
17 | 15.5 | – | COc1c(C)cc(C2CCc3nc(C(=O)NCc4ccccc4)cn3C2)cc1C (stereo not drawn) [Compound 5, N-Benzyl-6-(4-methoxy-3,5-dimethylphenyl)-5,6,7,8-tetrahydroimidazo[1,2-a]pyridine-2-carboxamide]
18 | 18 | – | CCOC(=O)C1CCCN(C(=O)c2cn3c(n2)CCC(c2ccc(Oc4ccccc4)cc2)C3)C1 (stereo not drawn) [Compound 22, Ethyl 1-(6-(4-phenoxyphenyl)-5,6,7,8-tetrahydroimidazo[1,2-a]pyridine-2-carbonyl)piperidine-3-carboxylate]
19 | 18.6 | – | CCC(C)NC(=O)c1cn2c(n1)CCC(c1ccc(Oc3ccccc3)cc1)C2 (stereo not drawn) [Compound 18, N-sec-Butyl-6-(4-phenoxyphenyl)-5,6,7,8-tetrahydroimidazo[1,2-a]pyridine-2-carboxamide]
20 | 132 | – | Cc1cccc(N2CCN(C(=O)c3cn4c(n3)CCC(c3ccc(F)c(C)c3)C4)CC2)c1 (stereo not drawn) [Compound 65, (6-(4-Fluoro-3-methylphenyl)-5,6,7,8-tetrahydroimidazo[1,2-a]pyridin-2-yl)(4-(3-methylphenyl)piperazin-1-yl)methanone]
21 | 16.7 | – | CC1(C)CC2CC(C)(CN2C(=O)c2cn3c(n2)CCC(c2ccccc2)C3)C1 (stereo not drawn) [Compound 3, (6-Phenyl-5,6,7,8-tetrahydroimidazo[1,2-a]pyridin-2-yl)(1,3,3-trimethyl-6-azabicyclo[3.2.1]octan-6-yl)methanone]
22 | 37.9 | – | Cc1cc(C2CCc3nc(C(=O)N4CC5(C)CC4CC(C)(C)C5)cn3C2)ccc1F (stereo not drawn) [Compound 84, (6-(4-Fluoro-3-methylphenyl)-5,6,7,8-tetrahydroimidazo[1,2-a]pyridin-2-yl)(1,3,3-trimethyl-6-azabicyclo[3.2.1]octan-6-yl)methanone]
23 | 25.7 | – | COc1cccc(C2CCc3nc(C(=O)N4CCC(Cc5ccccc5)CC4)cn3C2)c1 (stereo not drawn) [Compound 50, (4-Benzylpiperidin-1-yl)(6-(3-methoxyphenyl)-5,6,7,8-tetrahydroimidazo[1,2-a]pyridin-2-yl)methanone]
24 | 29.1 | – | COc1ccc(F)cc1C1CCc2nc(C(=O)N3CCC(Cc4ccccc4)CC3)cn2C1 (stereo not drawn) [Compound 8, (4-Benzylpiperidin-1-yl)(6-(5-fluoro-2-methoxyphenyl)-5,6,7,8-tetrahydroimidazo[1,2-a]pyridin-2-yl)methanone]
